# According to patent US6867211B2, “4-Pyridyl-and 2,4-pyrimidinyl-substituted pyrrole derivatives and their use in pharmacy” (Merckle GmbH, priority 2000, dated 2005):
# Tests used:
# [1] = system: IL-1β; assay: In vitro test procedure using PBMCs, LPS-stimulated, IL-1β by ELISA; type: cell-based; details: Homo sapiens, PBMC; for inhibition at 10 µM / inhibition at 1 µM: 4 h, read-out: IL-1β percentage inhibition; for inhibition at 10 µM: at 10 μmol; for inhibition at 1 µM: at 1 μmol
# Description: (§1) In vitro Test Procedure Using PBMCs
# (§2) The mononuclear cells (PBMCs) are isolated from human potassium-EDTA whole blood diluted 1:3 by means of density gradient centrifugation (Histopaque®-1.077). After 2 washing steps with DPBS buffer, the mononuclear cells are resuspended in macrophage-SFM medium and adjusted to a cell count of 1×10^6 cells/ml.
# (§3) The PBMCs suspension (at 390 μl) is preincubated with test substance for 15 min at 37° C. in a CO2 incubator (5% CO2; 95% moisture-saturated air). The samples are subsequently stimulated for 4 hours with 1 μg/ml LPS (E.coli 026:B6) at 37° C. in a CO2 incubator (5% CO2, 95% moisture-saturated air). The reaction is ended by placing the samples on ice, addition of DPBS buffer and centrifugation (15880×g; 12 min). The supernatant is used for the quantification of IL-1β and TNFα by means of ELISA.
# [2] = system: TNFα; assay: In vitro test procedure using PBMCs, LPS-stimulated, TNFα by ELISA; type: cell-based; details: Homo sapiens, PBMC; for inhibition at 10 µM / inhibition at 1 µM: 4 h, read-out: TNFα percentage inhibition; for inhibition at 10 µM: at 10 μmol; for inhibition at 1 µM: at 1 μmol
# Description: as §1, §2, §3
# [3] = system: TNFα; assay: In vitro test procedure using human whole blood, LPS-stimulated, TNFα by ELISA; type: cell-based; details: whole-blood method; for IC50: Homo sapiens
# Description: (§4) In vitro Test Procedure Using Human Whole Blood
# (§5) Human potassium-EDTA whole blood (at 400 μl) is preincubated with test substance for 15 min. at 37° C. in a CO2 incubator (5% CO2; 95% moisture-saturated air). The samples are then stimulated for 4 hours with 1 μg/ml of LPS (E. coli 026:B6) at 37° C. in a CO2 incubator (5% CO2; 95% moisture-saturated air). The reaction is ended by placing the samples on ice, addition of DPBS buffer and subsequent centrifugation (1000×g; 15 min). The plasma supernatant is used for the quantification of IL-1β and TNFα by means of ELISA.
# [4] = system: IL-1β; assay: In vitro test procedure using human whole blood, LPS-stimulated, IL-1β by ELISA; type: cell-based; details: whole-blood method; for IC50: Homo sapiens
# Description: as §4, §5
# [5] = biological target: T1, 5-lipoxygenase (Homo sapiens, UniProt P09917); assay: In vitro test system for determining the inhibition of 5-lipoxygenase (LTB4 from human granulocytes, A 23187, ELISA); type: cell-based; details: for IC50: human granulocytes, read-out: 5-LO IC50
# T1 construct: Human granulocytes are used as a source of the 5-lipoxygenase; endogenous in cells; host or cells: human granulocytes isolated from heparinised blood on a Percoll gradient
# T1 sequence (P09917 1-674): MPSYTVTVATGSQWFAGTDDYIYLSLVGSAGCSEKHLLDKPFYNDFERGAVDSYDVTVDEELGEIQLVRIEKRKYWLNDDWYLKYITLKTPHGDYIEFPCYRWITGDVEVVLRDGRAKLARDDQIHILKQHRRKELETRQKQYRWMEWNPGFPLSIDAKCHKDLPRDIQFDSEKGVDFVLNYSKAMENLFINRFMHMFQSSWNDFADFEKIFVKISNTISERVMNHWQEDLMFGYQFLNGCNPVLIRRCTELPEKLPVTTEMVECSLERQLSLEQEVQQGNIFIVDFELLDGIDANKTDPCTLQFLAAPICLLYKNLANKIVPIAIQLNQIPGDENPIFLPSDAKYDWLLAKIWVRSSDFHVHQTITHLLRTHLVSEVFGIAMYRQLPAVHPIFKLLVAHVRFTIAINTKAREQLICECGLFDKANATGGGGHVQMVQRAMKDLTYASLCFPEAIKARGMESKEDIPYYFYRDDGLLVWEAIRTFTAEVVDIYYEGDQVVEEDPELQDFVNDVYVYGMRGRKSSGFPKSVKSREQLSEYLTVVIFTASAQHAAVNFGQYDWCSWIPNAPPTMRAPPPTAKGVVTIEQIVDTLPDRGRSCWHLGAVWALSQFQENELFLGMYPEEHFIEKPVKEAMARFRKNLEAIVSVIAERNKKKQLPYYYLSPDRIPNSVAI
# Description: In vitro Test System for Determining the Inhibition of 5-lipoxygenase
# Human granulocytes are used as a source of the 5-lipoxygenase. LTB4 (leukotriene B4) is formed from endogenous arachidonic acid by means of stimulation with calcium ionophore A 23187. The granulocytes are isolated and the enzyme reaction is carried out according to known processes (see Arch. Pharm. Pharm. Med. Chem. 330, 307-312 (1997)).
# The blood, which is protected from clotting with heparin, is centrifuged on a discontinuous Percoll® gradient and the granulocyte layer is pipetted off. After lysis of the erythrocytes, the granulocytes are washed a number of times and then adjusted to a specific cell count. The enzyme reaction is then started with calcium ionophore A 23187 in the presence or absence of the test substance after addition of Ca2+. The synthesis of the leukotrienes is stopped after 1.5 minutes. The samples are centrifuged off and the supernatant is diluted. LTB4 is determined quantitatively by means of ELISA.
# [6] = biological target: T2, COX2 (from sheep placenta) (Ovis aries, UniProt P79208); assay: In vitro test system for determining the inhibition of cyclooxygenase-2 (COX2 from sheep placenta, PGE2 ELISA); type: biochemical; details: read-out: COX-2 IC50
# T2 construct: COX2 (from sheep placenta) is preincubated at 4° C. with test substance for 10 min; from tissue; host or cells: sheep placenta
# T2 sequence (P79208 17-603): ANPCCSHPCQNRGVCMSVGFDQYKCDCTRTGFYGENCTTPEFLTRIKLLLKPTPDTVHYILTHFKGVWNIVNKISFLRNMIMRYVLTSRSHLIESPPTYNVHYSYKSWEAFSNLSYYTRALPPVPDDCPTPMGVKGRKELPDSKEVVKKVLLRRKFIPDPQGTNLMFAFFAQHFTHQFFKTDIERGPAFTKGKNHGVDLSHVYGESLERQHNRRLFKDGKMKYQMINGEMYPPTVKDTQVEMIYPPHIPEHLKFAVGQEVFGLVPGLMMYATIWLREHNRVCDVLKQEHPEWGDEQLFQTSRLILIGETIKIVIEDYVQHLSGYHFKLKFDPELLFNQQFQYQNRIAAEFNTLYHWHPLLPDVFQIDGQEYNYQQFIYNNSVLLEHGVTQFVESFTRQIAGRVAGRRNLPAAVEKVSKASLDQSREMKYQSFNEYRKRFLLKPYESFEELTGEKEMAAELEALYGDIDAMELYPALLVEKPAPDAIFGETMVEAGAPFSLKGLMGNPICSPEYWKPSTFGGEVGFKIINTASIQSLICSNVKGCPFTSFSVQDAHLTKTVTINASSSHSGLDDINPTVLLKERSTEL
# Description: In vitro Test System for Determining the Inhibition of Cyclooxygenase-2
# COX2 (from sheep placenta) is preincubated at 4° C. with test substance for 10 min, then stimulated with arachidonic acid (5 μM) at 25° C. for 10 min. […] The determination is carried out at 3 dilutions (10^−7, 10^−6, 10^−5 M). The PGE2 concentrations are quantified by means of ELISA (see Mitchell J. A. et al., Proc. Nat. Acad. Sci. 90: 11693-11697 (1993)).
# [7] = biological target: T3, cyclooxygenase-1 (Homo sapiens, UniProt P23219); assay: In vitro test system for determining the inhibition of cyclooxygenase-1 (PGE2 from human platelets, calcium ionophore, ELISA); type: cell-based; details: for COX-1 percentage inhibition: at 10 μmol; for IC50: human platelets, read-out: COX-1 IC50
# T3 construct: endogenous in cells; host or cells: human platelets isolated on a discontinuous Percoll gradient
# Description: In vitro Test System for Determining the Inhibition of Cyclooxygenase-1
# In this test system, the amount of prostaglandin E2 formed from human platelets after addition of calcium ionophore is determined by means of ELISA. In this process, the platelets are obtained after centrifugation on a discontinuous Percoll® gradient. The enzyme reaction and the determination of the metabolites formed is carried out in principle as in the determination of 5-lipoxygenase inhibition. Differences exist with respect to the incubation time. Furthermore, the addition of a thromboxane synthesis inhibitor is necessary (see Arch. Pharm. Pharm. Med. Chem. 330, 307-312 (1997)).
# T3 sequence (P23219 24-599): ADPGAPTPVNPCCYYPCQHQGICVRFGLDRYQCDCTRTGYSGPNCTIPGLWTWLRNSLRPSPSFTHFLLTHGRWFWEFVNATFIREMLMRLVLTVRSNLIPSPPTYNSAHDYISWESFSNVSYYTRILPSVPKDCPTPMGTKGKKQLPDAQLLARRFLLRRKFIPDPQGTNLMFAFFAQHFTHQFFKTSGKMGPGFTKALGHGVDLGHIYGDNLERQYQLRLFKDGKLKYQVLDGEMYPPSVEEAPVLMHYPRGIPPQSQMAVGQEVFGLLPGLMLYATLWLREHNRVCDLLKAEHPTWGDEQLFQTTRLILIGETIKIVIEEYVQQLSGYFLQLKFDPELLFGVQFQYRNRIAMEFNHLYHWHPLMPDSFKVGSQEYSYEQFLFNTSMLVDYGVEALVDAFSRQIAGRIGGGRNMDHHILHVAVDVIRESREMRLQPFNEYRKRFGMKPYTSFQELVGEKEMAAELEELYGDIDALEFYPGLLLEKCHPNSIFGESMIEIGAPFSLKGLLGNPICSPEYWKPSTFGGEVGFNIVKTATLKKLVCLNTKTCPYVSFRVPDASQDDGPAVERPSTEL
Compound,IC50 [3] [µM],IC50 [4] [µM],IC50 [5] [µM],IC50 [2] [µM],COX-1 percentage inhibition [7],inhibition at 10 µM [1] [%],inhibition at 10 µM [2] [%],also measured
"O=C(O)c1c(-c2ccncc2)c(-c2ccc(F)cc2)n2c1CCC2 [Example 2, 3-(4-Fluorophenyl)-2-(4-pyridyl)-6,7-dihydro-5H-pyrrolizine-1-carboxylic acid]",16,2.9,,,,17,37,
"Fc1ccc(-c2c(-c3ccncc3)cc3n2CCC3)cc1 [Example 5, 5-(4-Fluorophenyl)-6-(4-pyridyl)-2,3-dihydro-1H-pyrrolizine]",,,0.027,1.4,,,88,inhibition at 1 µM [2]: 44%; IC50 [6]: 5.8 µM
"O=C(O)c1c(-c2ccncc2)c(-c2cccs2)n2c1CCC2 [Example 7, 3-(2-Thienyl)-2-(4-pyridyl)-6,7-dihydro-5H-pyrrolizine-1-carboxylic acid]",48,52,,,10/40%,,,
"O=C(O)c1c(-c2ccncc2)c(-c2ccc(F)cc2)n2c1SCC2 [Example 11, 5-(4-Fluorophenyl)-6-(4-pyridyl)-2,3-dihydro-pyrrole-[2,1-b]-thiazole-7-carboxylic acid]",,,,6.8,10/33%,,,5-LO percentage inhibition ([5]; at 10 μmol): 10/30%; IC50 [1]: 2.3 µM; TNFα percentage inhibition ([3]; at 100 μmol): 45%; IL-1β percentage inhibition ([4]; at 100 μmol): 45%
"OCc1c(-c2ccncc2)c(-c2ccc(F)cc2)n2c1SCC2 [Example 12, [5-(4-Fluorophenyl)-6-(4-pyridyl)-2,3-dihydro-pyrrolo-[2,1-b]-thiazol-7-yl]methanol]",45,76,,,,,44,IC50 [1]: 7.6 µM
"Cc1c(-c2ccncc2)c(-c2ccc(F)cc2)n2c1SCC2 [Example 13, 5-(4-Fluorophenyl)-7-methyl-6-pyridin-4-yl-2,3-dihydropyrrolo-[2,1-b]-thiazole]",41,80,0.04,8.1,10/45%,43,,
"Fc1ccc(-c2c(-c3ccncc3)cc3n2CCS3)cc1 [Example 14, 5-(4-Fluorophenyl)-6-pyridin-4-yl-2,3-dihydro-pyrrolo-[2,1-b]-thiazole]",,,2.4,7.6,,,,IC50 [7]: 2.3 µM; IC50 [1]: 8.5 µM
"Cc1c(-c2ccncc2)c(-c2ccc(F)cc2)n2c1CCCC2 [Example 17, 3-(4-Fluorophenyl)-1-methyl-2-(4-pyridyl)-5,6,7,8-tetrahydroindolizine]",39,33,2.2,4,10/48%,67,,inhibition at 1 µM [1]: 0%
"Fc1ccc(-c2cc3n(c2-c2ccncc2)CCC3)cc1 [Example 22, 6-(4-Fluorophenyl)-5-(4-pyridyl)-2,3-dihydro-1H-pyrrolizine]",,,0.67,,,59,34,IC50 [7]: 0.23 µM; IC50 [6]: 1.5 µM
"CC1(C)COc2c(-c3ccncc3)c(-c3ccc(F)cc3)cn2C1 [Example 24, 7-(4-Fluorophenyl)-3,3-dimethyl-8-pyridin-4-yl-3,4-dihydro-2H-pyrrolo[2,1-b][1,3]-oxazine]",,,1.35,,,48,42,IC50 [6]: 4 µM
Fc1ccc(-c2c(-c3ccccc3)c3n(c2-c2ccncc2)CCC3)cc1 [Example 25],,,,87,,,,

# Now from value to molecule, other results behind:
IC50 [3] [µM],IC50 [4] [µM],IC50 [5] [µM],IC50 [2] [µM],COX-1 percentage inhibition [7],Compound,inhibition at 10 µM [1] [%],inhibition at 10 µM [2] [%],also measured
30,30,,,,"CCOC(=O)c1c(-c2ccncc2)c(-c2ccc(F)cc2)n2c1CCC2 [Example 1A, Ethyl 3-(4-fluorophenyl)-2-(4-pyridyl)-6,7-dihydro-5H-pyrrolizine-1-carboxylate]",21,13,
,,2,1.4,,"CCOC(=O)c1c(-c2ccncc2)c2n(c1-c1ccc(F)cc1)CCC2 [Example 1B, Ethyl 3-(4-fluorophenyl)-1-(4-pyridyl)-6,7-dihydro-5H-pyrrolizine-2-carboxylate]",,60,IC50 [1]: 1.4 µM; inhibition at 1 µM [2]: 12%
38,22,1.3,,10/11%,"CCOC(=O)c1c(-c2ccncc2)c(-c2ccc(Cl)s2)n2c1CCC2 [Example 9A, Ethyl 3-(5-chloro-2-thienyl)-2-(4-pyridyl)-6,7-dihydro-5H-pyrrolizine-1-carboxylate]",47,38,
,,2.05,,,"CCOC(=O)c1c(-c2ccc(F)cc2)c(-c2ccncc2)n2c1CCC2 [Example 19A, Ethyl 2-(4-fluorophenyl)-3-(4-pyridyl)-6,7-dihydro-5H-pyrrolizine-1-carboxylate]",21,60,IC50 [7]: 2.9 µM; inhibition at 1 µM [1]: 0%; inhibition at 1 µM [2]: 0%; IC50 [6]: 5.5 µM
